Source: US20030082678A1, “Methods and compositions for regulating body weight in bovine species” (priority 2001, published 2003)
Where “and” joins values, the source holds several entries; their conditions need not be identical. Equal entries are not always repeated. Ends that are not written are not given here.

Assays:
bovine MC4-R = target: T1, bovine MC4-R (Bos taurus, UniProt Q9GLJ8); experiment: CRE-luciferase reporter assay in human embryonic kidney 293 cells transiently co-transfected with bovine MC4-R; type: cell-based; details: for Luciferase Activity: 18 hrs, transiently transfected human embryonic kidney 293 cells
T1 construct: expressed in transfected cells; host or cells: human embryonic kidney 293 cells (ATCC CRL 1573), transient co-transfection of pcDNA3.1-bMC4R with the pGL2-promoter/CRE luciferase reporter
Procedure: The phagemid pBluescript-bMC4-R (10 μg) containing a full-length (1.9 kb) bovine MC4-R cDNA (SEQ ID NO:1) was digested using restriction endonucleases EcoRI (20 units, Gibco-BRL) and XhoI (20 units, Gibco-BRL) at 37° C. for 1 hr following the supplier's instructions. The resulting 1.9 kb bovine MC4-R cDNA fragment was then subcloned into the mammalian cell expression plasmid pcDNA3.1(+) (Invitrogen, Carlsband, Calif.) following standard cloning procedures (Sambrook et al., 1989, Molecular Cloning, A Laboratory Manual, Second Edition, Cold Spring Harbor Laboratory Press). The resulting bovine MC4-R expression plasmid, pcDNA3.1-bMC4R, was then used in conjunction with a reporter plasmid, pGL2-promoter/CRE (cyclic AMP activated transcription binding protein response element), to transiently co-transfect human embryonic kidney 293 cells (ATCC CRL 1573) using the LipofectAMINE PLUS reagent kit (Gibco-BRL, catalog no. 10964-013) following the supplier's instructions.
The pGL2-promoter/CRE plasmid, containing tandem cAMP activated transcription binding protein response elements from the rat somatostatin gene (Vallejo, et al., 1992, J. Biol. Chem. 267(18):12868-12875) and human chorionic gonadotropin (hCG) gene (Deutsch, et al., 1987, J. Biol. Chem. 262(25):12169-12174), was prepared following standard cloning procedures (Sambrook et al., supra). In brief, the plasmid was constructed by inserting a double stranded oligonucleotide linker, CRE-2 (SEQ ID NO:22), containing the rat somatostatin CRE sequence (5′-[…]-3′; SEQ ID NO:20), the human chorionic gonadotropin (hCG) CRE sequence (5′-AAATTGACGTCATGGTAA-3′; SEQ ID NO:21), and MluI and BglII cohesive ends, into the MluI and BglII sites, respectively, of plasmid pGL2-promoter (Promega, Madison, Wis., catalog no. E1631). The CRE-2 linker had the structure:
The CRE-2 oligonuceotide linker was prepared by first synthesizing the CREA and CREB oligonucleotides, including the MluI and BglII cohesive ends, using a DNA synthesizer Model 370 from PE-Biosystems (Foster City, Calif.). […]

[1] = target: bovine melanocortin 4 receptor protein (MC4-R) (bovine); experiment: cell-based or functional assay

T1 sequence (Q9GLJ8 whole entry): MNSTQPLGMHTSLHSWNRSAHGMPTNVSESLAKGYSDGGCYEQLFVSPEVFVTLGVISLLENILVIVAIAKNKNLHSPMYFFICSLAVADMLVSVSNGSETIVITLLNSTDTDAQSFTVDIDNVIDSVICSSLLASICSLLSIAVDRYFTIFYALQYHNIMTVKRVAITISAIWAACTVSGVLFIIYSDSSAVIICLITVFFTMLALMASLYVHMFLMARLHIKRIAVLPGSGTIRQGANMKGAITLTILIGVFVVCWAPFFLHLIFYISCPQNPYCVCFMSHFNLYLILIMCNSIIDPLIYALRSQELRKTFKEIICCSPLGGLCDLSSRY

Molecule	Activation of cloned bovine MC4-R expressed in 293 cells (bovine MC4-R; human embryonic kidney 293 cells)	Luciferase Activity (bovine MC4-R; α-MSH 1 nM)	Luciferase Activity (bovine MC4-R; α-MSH 10 nM)	Luciferase Activity (CRE-luciferase reporter, 293 cells), 0 nM α-MSH (baseline without ligand) [1]	Luciferase Activity (CRE-luciferase reporter, 293 cells), 1 nM α-MSH [1]	Luciferase Activity (CRE-luciferase reporter, 293 cells), 10 nM α-MSH [1]
α-MSH	activated	24.80 and 26.67	35.13 and 37.13			
SYSMEHFRWGKPV (peptide, UniProt P01189 138-150, looked up, ends and bridges not checked) [human α-MSH]				8.19 and 7.78	24.8 and 26.7	35.1 and 37.1
